Assay results: patent publication US11090247B2, “Compositions for protecting the skin from heavy metals and formaldehyde” (FNG RESEARCH CO., LTD., priority 2016, dated 2021)

What was measured:
[1] = Removal test of heavy metals of active ingredients (pig skin, ICP-MS): Cu; settings: contaminated pig skin
Description: (§1) (1) Preparation of Heavy Metal Contamination Sources and Pig Skin Samples
(§2) A pig was slaughtered, flayed and the bristle was shaved. The pig skin was cut to prepare 5*5 cm size of skin samples respectively.
(§3) The said skin samples were cleanly wiped with wet gauze, and then, added to 50 ml of methanol and extracted by shaking with ultrasonic for 60 min. 50 ml of methanol was further added and mixed. The pig skin samples were removed from the extracted solutions to prepare the test solutions.
(§4) The test solutions were analyzed for heavy metal components using an inductively coupled plasma mass spectrometer (ICP-MS, Xseries™ 2, Thermo Fisher Scientific, UK).

human skin = test: Skin irritation test of active ingredient (patch method, CTFA guidelines); format: in vivo; parameters: key to Degree of irritation: 0–0.1 none, 0.11–0.3 weak, 0.31–0.5 moderate, ≥0.51 strong irritation; settings: 20 people, patch 24 hours; for Test result(number of subject) (+): (+): Apparent reddening than periphery; for Test result(number of subject) (++): (++): More reddened and swollen than periphery; for Test result(number of subject) (±): (±): slightly reddish than the periphery; for Test result(number of subject) (−): (−): No erythema or particularly no symptoms
Description: A total of 20 people (10 men and 10 women in their 20 s and 30 s) were tested for skin irritation using the patch method according to the guidelines of CTFA (The Cosmetic, Toiletry & Fragrance Association, Inc. Washington, D.C.).
A filter paper disk was placed in an 8 mm diameter, 10 panels of pin chamber.
After 24 hours, the pin chamber was removed, and skin conditions were visually observed.
[Criteria for Skin Irritation]
(−): No erythema or particularly no symptoms; (±): slightly reddish than the periphery; (+): Apparent reddening than periphery; (++): More reddened and swollen than periphery.
[Grade for Skin Irritation]
Degree of irritation 0-0.1: Grade I (unstimulated);
Degree of irritation 0.11-0.3: Grade II (weakly stimulated);
Degree of irritation 0.31-0.5: Grade III (moderately stimulated);
Degree of irritation 0.51 or more: Grade IV (strongly stimulated)

[2] = Formaldehyde removing ability test (GC); settings: 2.0% formaldehyde solution; for Area (mAU*min) 30 min: formaldehyde GC area after 30 min; for Area (mAU*min) 30 min / Area (mAU*min) 180 min: 3 molar equivalents, room temperature; for Area (mAU*min) 180 min: formaldehyde GC area after 180 min; for Area (mAU*min) Initial: formaldehyde GC area, initial state, 3 molar equivalents of compound
[3] = Removal test of heavy metals of active ingredients (pig skin, ICP-MS): Cd; settings: contaminated pig skin
Description: as §1, §2, §3, §4

[4] = Removal test of heavy metals of active ingredients (pig skin, ICP-MS): Pb; settings: contaminated pig skin
Description: as §1, §2, §3, §4

Compound | Removal of Heavy metals Cu (%) ([1]; 0.1 wt % aqueous solution) | Removal of Heavy metals Cu (%) ([1]; 0.5 wt % aqueous solution) | Removal of Heavy metals Cu (%) ([1]; 1.0 wt % aqueous solution) | Degree of irritation (human skin; 0.1 wt %) | Grade (human skin; 0.1 wt %) | Test result(number of subject) (+) (human skin; 0.1 wt %) | Test result(number of subject) (++) (human skin; 0.1 wt %) | Test result(number of subject) (±) (human skin; 0.1 wt %) | Test result(number of subject) (−) (human skin; 0.1 wt %) | Degree of irritation (human skin; 0.5 wt %) | Grade (human skin; 0.5 wt %) | Test result(number of subject) (+) (human skin; 0.5 wt %) | Test result(number of subject) (++) (human skin; 0.5 wt %) | Test result(number of subject) (±) (human skin; 0.5 wt %) | Test result(number of subject) (−) (human skin; 0.5 wt %) | Degree of irritation (human skin; 1.0 wt %) | Grade (human skin; 1.0 wt %) | Test result(number of subject) (+) (human skin; 1.0 wt %) | Test result(number of subject) (++) (human skin; 1.0 wt %) | Test result(number of subject) (±) (human skin; 1.0 wt %) | also measured
O=C(O)CN1CCN(CC(=O)O)CCN(CC(=O)O)CCN(CC(=O)O)CC1 [Embodiment 5, 2,2′,2″,2′″-(1,4,7,10-tetraazacyclododecane-1,4,7,10-tetrayl)tetraacetic acid] | 94.6 | 96.8 | 97.2 | 0 | I (Degree of irritation 0-0.1: Grade I (unstimulated)) | 0 | 0 | 0 | 20 | 0 | I (Degree of irritation 0-0.1: Grade I (unstimulated)) | 0 | 0 | 0 | 20 | 0.05 | I (Degree of irritation 0-0.1: Grade I (unstimulated)) | 0 | 0 | 1 | Test result(number of subject) (−) (human skin; 1.0 wt %): 19; Area (mAU*min) 30 min [2]: 0.179 mAU*min; Area (mAU*min) 180 min [2]: 0 mAU*min; Area (mAU*min) Initial [2]: 0.305 mAU*min; Removal of Heavy metals Cd (%) ([3]; 0.1 wt % aqueous solution): 90.4%; Removal of Heavy metals Cd (%) ([3]; 0.5 wt % aqueous solution): 93.6%; Removal of Heavy metals Cd (%) ([3]; 1.0 wt % aqueous solution): 93.7%; Removal of Heavy metals Pb (%) ([4]; 0.1 wt % aqueous solution): 92.4%; Removal of Heavy metals Pb (%) ([4]; 0.5 wt % aqueous solution): 94.7%; Removal of Heavy metals Pb (%) ([4]; 1.0 wt % aqueous solution): 95.1%
O=C(O)c1ccc(N2CCN(c3ccc(C(=O)O)cc3)CCN(c3ccc(C(=O)O)cc3)CCN(c3ccc(C(=O)O)cc3)CC2)cc1 [Embodiment 6, 4,4′,4″,4′″-(1,4,7,10-tetraazacyclododecane-1,4,7,10-tetrayl)tetrabenzoic acid] | 94.1 | 96.3 | 97.0 | 0 | I (Degree of irritation 0-0.1: Grade I (unstimulated)) | 0 | 0 | 0 | 20 | 0 | I (Degree of irritation 0-0.1: Grade I (unstimulated)) | 0 | 0 | 0 | 20 | 0.05 | I (Degree of irritation 0-0.1: Grade I (unstimulated)) | 0 | 0 | 1 | Test result(number of subject) (−) (human skin; 1.0 wt %): 19; Area (mAU*min) 30 min [2]: 0.183 mAU*min; Area (mAU*min) 180 min [2]: 0 mAU*min; Area (mAU*min) Initial [2]: 0.305 mAU*min; Removal of Heavy metals Cd (%) ([3]; 0.1 wt % aqueous solution): 89.2%; Removal of Heavy metals Cd (%) ([3]; 0.5 wt % aqueous solution): 90.9%; Removal of Heavy metals Cd (%) ([3]; 1.0 wt % aqueous solution): 91.6%; Removal of Heavy metals Pb (%) ([4]; 0.1 wt % aqueous solution): 90.2%; Removal of Heavy metals Pb (%) ([4]; 0.5 wt % aqueous solution): 92.8%; Removal of Heavy metals Pb (%) ([4]; 1.0 wt % aqueous solution): 93.2%
